SMILES strings stand for the structures.

We go through one compound from patent US20100311585A1, “HERBICIDAL COMPOSITION AND METHOD OF USE THEREOF” (SYNGENTA CROP PROTECTION, INC., priority 2007, published 2010).

Assay [1] concerns goosegrass (Eleusine indica). The experiment in a line: Glasshouse trial, control of goosegrass, post-emergence application. Set-up: key: % weed control; expected = A+B−(A×B/100) (Colby). The format is in vivo. As to conditions: for Actual (weed control): X-77 0.1% v/v, * indicates synergy. Here is the method:
(§1) In the following tests, herbicides were applied at reduced field rates because herbicide effects are magnified in a glasshouse environment. The rates tested were selected to give between about 50 and 70% control with herbicides applied alone, so that any synergistic effect could be readily detected when testing mixtures. A glasshouse trial was carried out. Goosegrass seeds were sown into standard glasshouse potting mix (1:1 v/v Promix: Vero sand soil) contained in 10 cm square plastic pots. Treatments were replicated three times. Mesotrione (in the form Callisto® 480SE) was applied post-emergence to goosegrass (Eleusine indica) at either 100 g ai/ha or 200 g ai/ha with or without ethofumesate (in the form Prograss®). When used, ethofumesate was applied at a rate of 210 g ai/ha, 420 g ai/ha or 840 g ai/ha. The adjuvant system was X-77 at 0.1% v/v in deionised water. 200 litres of herbicide/adjuvant system was used per hectare. General weed control was evaluated at 7 and 14 days after treatment (DAT). It is noted that all herbicides were applied at reduced field rates because herbicide effects are magnified in a glasshouse environment. Rates were chosen to give a 50 to 70% level of control with herbicides applied alone as this allows for detection of any synergistic effect when tank mixtures are used. The results were evaluated using the Colby formula. The expected result for (A+B) is (A+B)−(A×B/100) where A and B are the ‘observed’ results for A and B on their own.

Assay [2] concerns Medicago lupulina (black medic). The assay is described as follows: Glasshouse trial, control of black medic, post-emergence application. The format is in vivo. As to conditions: ethofumesate 210 g ai/ha plus mesotrione at 100 g ai/ha. Here is the method: as §1, with “A” for “In the following tests, herbicides were applied at reduced field rates because herbicide effects are magnified in a glasshouse environment. The rates tested were selected to give between about 50 and 70% control with herbicides applied alone, so that any synergistic effect could be readily detected when testing mixtures. A”, “own. […] A glasshouse trial was carried out as described in Example 1, except that Medicago lupulina (black medic) was used in place of goosegrass, and only one rate combination was tested.” for “own.”

[3] abbreviates: ethofumesate 210 g ai/ha plus mesotrione at 200 g ai/ha.
Setting [4] is: ethofumesate 420 g ai/ha plus mesotrione at 100 g ai/ha.
[5] abbreviates: ethofumesate 420 g ai/ha plus mesotrione at 200 g ai/ha.
The mark [6] stands for this setting: ethofumesate 840 g ai/ha plus mesotrione at 100 g ai/ha.
[7] abbreviates: ethofumesate 840 g ai/ha plus mesotrione at 200 g ai/ha.

On to `CCOC1Oc2ccc(OS(C)(=O)=O)cc2C1(C)C` (racemic) [Ethofumesate, (±)-2-ethoxy-2,3-dihydro-3,3-dimethylbenzofuran-5-yl methanesulfonate], for which the “Expected (weed control, Colby formula)” value in assay [1] (setting [3]) was 30; in assay [1] (setting [4]), 25; in assay [1] (setting [5]), 30; in assay [1] (setting [6]) it was 25; in assay [1] (setting [7]), 30; in assay [2], 85. Besides, the “Actual (weed control)” value in assay [1] (setting [3]) is 45*; in assay [1] (setting [4]), 37*; in assay [1] (setting [5]), 52*; in assay [1] (setting [6]), 55*; in assay [1] (setting [7]), 72*; in assay [2] (* indicates synergy), 94*.
